From PubChem BioAssay AID2286 (Southern Research Specialized Biocontainment Screening …, 2010)
Calls of active or inactive are those of the source.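 Rule for the calls: active = minimum cell viability of 80% or lower across the dose range, counted as toxic; inactive = minimum cell viability above 80%.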

Test: MAGI-CCR5 and HeLa-R5-16 cytotoxicity, dose response, cytotoxicity control for HIV-1 fusion inhibitor project, cell-based, MAGI and MAGI-HeLa co-culture (AID 2286);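 note: cells exposed to compound for at least 64 h before ATP readout; 100% = median of DMSO vehicle wells with no ATP signal meaning 0%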
Conditions: MAGI-CCR5 cells viability, CellTiter-Glo ATP luminescence; for minimum viability: measured here: MAGI minimum viability across doses
[1] = MAGI-HeLa co-culture viability, at 50 µM, stronger effect = lower value
[2] = at 12.5 µM, stronger effect = lower value
[3] = at 1.56 µM, stronger effect = lower value
[4] = at 6.25 µM, stronger effect = lower value

In the case of `O=C(CCN1C(=O)/C(=C/c2ccco2)SC1=S)Nc1ccc(C(=O)O)c(O)c1`, the viability [1] is reported as 108%, the viability (at 50 µM (top of the series)) is reported as 90.6% (inactive) and the minimum viability [2] is reported as 83%.

In the case of `Cc1ccc2nc(N3C(=O)C(O)=C(C(=O)c4ccco4)C3c3cccc(O)c3)sc2c1` (stereo not drawn), the viability [1] is reported as 105%, the viability (at 50 µM (top of the series)) is reported as 93.2% (inactive) and the minimum viability [3] is reported as 84.4%.

For `N#Cc1c(-c2ccccc2)nc(SCc2cccc(C(F)(F)F)c2)[nH]c1=O`, the viability [1] was 115%, the viability (at 50 µM (top of the series)) was 82.1% (inactive) and the minimum viability (at 50 µM, stronger effect = lower value) was 82.1%.

For `Cc1noc(NS(=O)(=O)c2ccc(NC(=O)Nc3ccc(Cl)c(Cl)c3)cc2)c1C`, the viability [1] was 120%, the viability (at 50 µM (top of the series)) was 95.5% (inactive) and the minimum viability [2] was 93%.

`COc1ccccc1NS(=O)(=O)c1cccc(-n2c(O)c(C=Nc3ccccc3C(=O)O)c3ccccc3c2=O)c1` showed a viability [1] of 111% and a minimum viability (at 50 µM, stronger effect = lower value) of 51.4%.

With `COc1cc(/C=C2\C(=N)N3N=C(S(C)(=O)=O)SC3=NC2=O)cc(OC)c1OCCOc1cccc(C)c1` the viability [1] was 120%, the viability (at 50 µM (top of the series)) was 82.5% (inactive) and the minimum viability (at 50 µM, stronger effect = lower value) was 82.5%.

In the case of `N=C1/C(=C\c2ccc(-c3cccc(C(=O)O)c3)o2)C(=O)N=C2SC=C(c3ccccc3)N12`, the viability [1] is reported as 103%, the viability (at 50 µM (top of the series)) is reported as 81% (inactive) and the minimum viability [2] is reported as 80.3%.

For `O=C(O)c1ccccc1-c1ccccc1C(=O)Nc1ccc(-c2nc3cc(Cl)ccc3o2)cc1`, the viability [1] was 80.5% and the minimum viability (at 50 µM, stronger effect = lower value) was 56.8%.

For `CCOc1cc(/C=N/N=C2/NC(=O)C(CC(=O)O)S2)ccc1OCc1ccc(Cl)cc1Cl` (stereo not drawn), the viability [1] was 98.7%, the viability (at 50 µM (top of the series)) was 96% (inactive) and the minimum viability [2] was 83.9%.

In the case of `COc1ccc(-c2cc(-c3ccc(Cl)cc3)c(C#N)c(SCC(=O)O)n2)cc1`, the viability [1] is reported as 96.4%, the viability (at 50 µM (top of the series)) is reported as 82.1% (inactive) and the minimum viability (at 50 µM, stronger effect = lower value) is reported as 82.1%.

In the case of `O=C(O)CN1C(=O)/C(=C\c2cccc(OCc3ccc(Cl)cc3)c2)SC1=S`, the viability [1] is reported as 98.9%, the viability (at 50 µM (top of the series)) is reported as 83.6% (inactive) and the minimum viability (at 50 µM, stronger effect = lower value) is reported as 83.6%.

In the case of `O=C(O)c1[nH]c2ccccc2c1C(c1c(F)cccc1Cl)c1c(C(=O)O)[nH]c2ccccc12`, the viability [1] is reported as 114%, the viability (at 50 µM (top of the series)) is reported as 104% (inactive) and the minimum viability (at 0.1 µM, stronger effect = lower value) is reported as 87.9%.

In the case of `CC(C)(C)OC(=O)N1CCC(c2cc(=O)n3[nH]cc(C(=O)Nc4ccc(F)c(Cl)c4)c3n2)CC1`, the viability [1] is reported as 98.3%, the viability (at 50 µM (top of the series)) is reported as 97.5% (inactive) and the minimum viability (at 25 µM, stronger effect = lower value) is reported as 88.7%.

In the case of `Cc1cn2c(N)c(C=C3C=C(Cl)C(=O)C(Cl)=C3)c(=O)nc2s1`, the viability [1] is reported as 105%, the viability (at 50 µM (top of the series)) is reported as 83.9% (inactive) and the minimum viability (at 25 µM, stronger effect = lower value) is reported as 81.8%.

With `O=C(CCN1C(=O)/C(=C\C=C\c2ccccc2)SC1=S)Nc1ccccc1C(=O)O` the viability [1] was 121% and the minimum viability (at 50 µM, stronger effect = lower value) was 74.5%.

With `COc1cc(/C=C2\C(=N)N3N=C(S(C)(=O)=O)SC3=NC2=O)ccc1OC(=O)c1ccco1` the viability [1] was 102%, the viability (at 50 µM (top of the series)) was 101% (inactive) and the minimum viability [3] was 87.6%.

Compound `CCCOc1ccc(C2C(C(=O)c3cc4ccccc4o3)=C(O)C(=O)N2c2cc(C)on2)cc1` (stereo not drawn) has a viability [1] of 97.9% and a minimum viability (at 50 µM, stronger effect = lower value) of 67.9%.

For `O=C1NC(=S)N(c2ccc(F)cc2)C(=O)/C1=C\c1ccoc1`, the viability [1] was 99.5%, the viability (at 50 µM (top of the series)) was 84.8% (inactive) and the minimum viability (at 50 µM, stronger effect = lower value) was 84.8%.

In the case of `O=C(O)c1[nH]c2ccccc2c1C(c1cccc(O)c1)c1c(C(=O)O)[nH]c2ccccc12`, the viability [1] is reported as 95.1%, the viability (at 50 µM (top of the series)) is reported as 91.2% (inactive) and the minimum viability [4] is reported as 86.4%.

With `Cc1cc(/C=C2/C(=N)N3C(=NC2=O)SN=C3S(C)(=O)=O)c(C)n1-c1ccccc1` the viability [1] was 116%, the viability (at 50 µM (top of the series)) was 104% (inactive) and the minimum viability (at 0.2 µM, stronger effect = lower value) was 101%.

For `CCCOc1ccc(C(=O)NNC(=S)NC(=O)c2cc(-c3ccccc3)nc3ccccc23)cc1`, the viability [1] was 112%, the viability (at 50 µM (top of the series)) was 105% (inactive) and the minimum viability (at 25 µM, stronger effect = lower value) was 99%.

For `O=C1NN(c2ccc(Cl)c(Cl)c2)C(=O)/C1=C/c1ccc(-c2ccccc2C(=O)O)o1`, the viability [1] was 121%, the viability (at 50 µM (top of the series)) was 105% (inactive) and the minimum viability [3] was 89.7%.

With `CCc1nnc(NS(=O)(=O)c2ccc(NC(=S)NC(=O)/C=C/c3cccs3)cc2)s1` the viability [1] was 105%, the viability (at 50 µM (top of the series)) was 93.8% (inactive) and the minimum viability (at 25 µM, stronger effect = lower value) was 83.5%.

`CCc1ccc(/C=C2\SC(=S)N(CCCC(=O)Nc3ccccc3C(=O)O)C2=O)cc1` gave a viability [1] of 90.6% and a minimum viability (at 50 µM, stronger effect = lower value) of 70.3%.

With `COc1ccc(NS(=O)(=O)c2ccc3c(c2)[C@H]2C=CC[C@H]2[C@@H](c2ccc(C(=O)O)cc2)N3)cc1` the viability [1] was 130%, the viability (at 50 µM (top of the series)) was 99.7% (inactive) and the minimum viability (at 3.13 µM, stronger effect = lower value) was 95.3%.

With `O=C(COc1ccc2ccccc2c1)Nc1cccc(C(=O)Nc2ccccc2C(=O)O)c1` the viability [1] was 101%, the viability (at 50 µM (top of the series)) was 83.3% (inactive) and the minimum viability (at 50 µM, stronger effect = lower value) was 83.3%.

With `CCCCCOc1ccc(C2C(C(=O)c3ccc(C)o3)=C(O)C(=O)N2c2cc(C)on2)cc1` (stereo not drawn) the viability [1] was 113%, the viability (at 50 µM (top of the series)) was 85.1% (inactive) and the minimum viability (at 25 µM, stronger effect = lower value) was 84.6%.

With `O=C1NN(c2ccc(Cl)c(Cl)c2)C(=O)/C1=C/c1cccc(OC(=O)c2cccs2)c1` the viability [1] was 111%, the viability (at 50 µM (top of the series)) was 90.3% (inactive) and the minimum viability (at 25 µM, stronger effect = lower value) was 86.1%.

With `O=C(N/N=C/c1cc(Cl)cc([N+](=O)[O-])c1O)c1ccccc1NS(=O)(=O)c1cccs1` the viability [1] was 107%, the viability (at 50 µM (top of the series)) was 96.6% (inactive) and the minimum viability [2] was 92.8%.

For `CCOc1ccc(C2C(C(=O)Nc3ccccc3)=C(C)N=c3s/c(=C/c4cccc(OCC(=O)O)c4)c(=O)n32)cc1` (stereo not drawn), the viability [1] was 94.8%, the viability (at 50 µM (top of the series)) was 96.2% (inactive) and the minimum viability [3] was 87.8%.

With `CC1=NN(c2ccc(C(=O)O)cc2)C(=O)/C1=C\c1ccc(OC(=O)c2cccs2)cc1` the viability [1] was 120%, the viability (at 50 µM (top of the series)) was 94.8% (inactive) and the minimum viability [3] was 93.5%.

With `COc1cc(OC)c2c(O)c3c(c(-c4c5c(c(O)c6c(OC)cc(OC)cc46)CO[C@@H](C)[C@H]5O)c2c1)[C@H](O)[C@H](C)OC3` the viability [1] was 102%, the viability (at 50 µM (top of the series)) was 103% (inactive) and the minimum viability [2] was 88.2%.

With `Cc1ccc(/C=C2\SC(=S)N(CCCC(=O)Nc3ccccc3C(=O)O)C2=O)cc1` the viability [1] was 127% and the minimum viability (at 50 µM, stronger effect = lower value) was 63.9%.

With `O=c1[nH]c(=S)[nH]c2c1C(c1ccc(Br)cc1)c1c([nH]c(=S)[nH]c1=O)O2` the viability [1] was 116%, the viability (at 50 µM (top of the series)) was 91.7% (inactive) and the minimum viability [2] was 82.5%.

`O=C(CCN1C(=O)/C(=C/c2cccs2)SC1=S)Nc1ccc(C(=O)O)c(O)c1` showed a viability [1] of 104% and a minimum viability (at 50 µM, stronger effect = lower value) of 66%.

For `Cc1ccc(Cl)cc1N1CCN(C(=O)Cc2c(C(=O)O)[nH]c3ccc(Cl)cc23)CC1`, the viability [1] was 98.9%, the viability (at 50 µM (top of the series)) was 91.8% (inactive) and the minimum viability [2] was 85.7%.

In the case of `N#Cc1c(-c2ccccc2)nc(SCc2cccc(Cl)c2)[nH]c1=O`, the viability [1] is reported as 101%, the viability (at 50 µM (top of the series)) is reported as 95.8% (inactive) and the minimum viability (at 25 µM, stronger effect = lower value) is reported as 88%.

In the case of `O=C(Nc1ccc(C(=O)O)cc1)/C(=C\C=C\c1ccccc1)NC(=O)c1cccc(Br)c1`, the viability [1] is reported as 85.1%, the viability (at 50 µM (top of the series)) is reported as 89.9% (inactive) and the minimum viability [4] is reported as 83.2%.

With `CCc1nnc(NS(=O)(=O)c2ccc(N/C=C(\C=O)c3nc4cc(Cl)ccc4o3)cc2)s1` the viability [1] was 99.2%, the viability (at 50 µM (top of the series)) was 90.2% (inactive) and the minimum viability [2] was 84.6%.

With `CC(/C=C1\SC(=S)N(c2ccc(C(=O)O)cc2)C1=O)=C\c1ccccc1` the viability [1] was 88%, the viability (at 50 µM (top of the series)) was 99.7% (inactive) and the minimum viability (at 0.39 µM, stronger effect = lower value) was 96.6%.

`O=C(Nc1ccc(-c2nc3ccccc3[nH]2)cc1)c1ccccc1NS(=O)(=O)c1ccc(F)cc1` showed a viability [1] of 116% and a minimum viability (at 50 µM, stronger effect = lower value) of 64.3%.

In the case of `NS(=O)(=O)c1cc(C(=O)NC2CCSc3ccccc32)ccc1Cl` (stereo not drawn), the viability [1] is reported as 103%, the viability (at 50 µM (top of the series)) is reported as 84.3% (inactive) and the minimum viability (at 50 µM, stronger effect = lower value) is reported as 84.3%.
